{"source": "BindingDB's records for doi:10.1158/0008-5472.can-03-3344", "about": "(St. Jude Children'S Research Hospital, 2004)", "assay": "TP_TRANSPORTER: drug resistance(Imatinib mesylate) in BCRP-expressing SaoS2 cells", "data": [{"smiles": "CCc1c2c(nc3ccc(O)cc13)-c1cc3c(c(=O)n1C2)COC(=O)[C@]3(O)CC", "note": "[7-ETHYL-10-HYDROXY-CAMPTOTHECIN]", "values": [{"measurement": "IC50", "result": 176, "unit": "nM"}]}]}
